Laboratory results from PMC9289672, “Optimization of Antibacterial Activity in Tibetan Swine α-Helix Peptide TP by Site-Directed Mutagenesis” (Frontiers in Microbiology, 2022).
Where two headings read alike, the source gives them in different places. Where no end group is shown, it is not given here.

Columns and labels:
[1] = tested on: all strains in Table 2; assay: Geometric mean of MIC and therapeutic index; type: cell-based; details: MHC/GM; 128 μm used when 50% hemolysis not observed at 128 μm
Method: (§1) The bacteria were cultured overnight in the MHB medium and transferred to the new MHB the next day until the bacteria reached the exponential growth stage. The bacteria were diluted with MHB to 2 × 10^5 CFU/ml. About 50 μl of polypeptide and equal volume of bacterial suspension was added to a 96-well plate to give the final concentration of polypeptide between 1 and 128 μm. The last two columns are negative (MHB only) and positive (bacterial and MHB) controls and incubated at 37°C for 18–24 h. Optical density was measured at an absorbance wavelength of 492 nm using a microplate reader (Tecan GENios F129004, Tecan, Austria). At least three independent measurements were taken. Each trial was conducted two times in parallel. A total of three independent assays were carried out.
Trp is a hydrophobic amino acid with aromatic side chains. It is a special amino acid in peptide design. Previous studies have pointed out that introducing amino acids will also bring toxicity while improving activity. Therefore, at the beginning of the design, we predicted that selecting Trp as hydrophobic amino acid to substitute H-H position would bring certain toxicity to the peptide. Thus, as expected, the introduction of Trp increases the activity and toxicity of these peptides. […] Meanwhile, the virulence of TP(i+4) 1&2&5&6 and TP(i+4) 1&2&6&7 was lower than that of TP(i+4) 1&2&5&7. We infer that the location of hydrophobic centers can effectively reduce peptide toxicity by Trp substitution. For further evaluating the cell selectivity of the peptides, we also calculated the SI which defined as the ratio of MHC to the geometric mean (GM) (Dufourc, [2008]).

[2] = tested on: Gram-negative bacteria; assay: Geometric mean of MIC and therapeutic index; type: cell-based; details: MHC/GM; 128 μm used when 50% hemolysis not observed at 128 μm
Method: as §1
(§2) Trp is a hydrophobic amino acid with aromatic side chains. It is a special amino acid in peptide design. Previous studies have pointed out that introducing amino acids will also bring toxicity while improving activity. […] For further evaluating the cell selectivity of the peptides, we also calculated the SI which defined as the ratio of MHC to the geometric mean (GM) (Dufourc, [2008]).

[3] = tested on: Gram-positive bacteria; assay: Geometric mean of MIC and therapeutic index; type: cell-based; details: MHC/GM; 128 μm used when 50% hemolysis not observed at 128 μm
Method: as §1, §2

[4] = tested on: hRBCs (human red blood cells); assay: Hemolytic activity; details: three independent assays, two in parallel
Method: (§5) The cytotoxicity of each peptide was assessed with IPEC-J12 and HEK 293T cells. […] Each trial was conducted two times in parallel. A total of three independent assays were carried out.

[5] = tested on: Enterococcus faecalis ATCC 29212
Text: (§3) The bacteria strains Escherichia coli ATCC 25922, Escherichia coli UB1005, Salmonella typhimurium ATCC 14028, Salmonella typhimurium C7731, Pseudomonas aeruginosa ATCC 27853, Pseudomonas aeruginosa PAO1, Staphylococcus aureus ATCC 29213, Staphylococcus aureus ATCC 25923, Methicillin-resistant Staphylococcus aureus (MRSA) 43300, Enterococcus faecalis ATCC 29212, and Staphylococcus epidermidis ATCC 12228 were obtained from the College of Veterinary Medicine, Northeast Agricultural University (Harbin, China).
as §1

[6] = tested on: Salmonella typhimurium ATCC 14028
Text: as §3, §1

[7] = tested on: Staphylococcus aureus ATCC 29213
Text: as §3, §1

[8] = tested on: Salmonella typhimurium C7731; details: MHB, bacteria diluted to 2 × 10^5 CFU/ml, peptide 1-128 μm, 37°C 18-24 h, OD 492 nm; three independent assays, two in parallel
Text: as §3, §1

[9] = tested on: Pseudomonas aeruginosa PAO1
Text: as §3, §1

[10] = tested on: Methicillin-resistant Staphylococcus aureus (MRSA) 43300; details: Methicillin-resistant 43300
Text: as §3, §1

[11] = tested on: Escherichia coli UB1005; details: MHB, bacteria diluted to 2 × 10^5 CFU/ml, peptide 1-128 μm, 37°C 18-24 h, OD 492 nm; three independent assays, two in parallel
Text: as §3, §1

[12] = tested on: Staphylococcus aureus ATCC 25923
Text: as §3, §1

[13] = tested on: Escherichia coli ATCC 25922
Text: as §3, §1

[14] = tested on: Pseudomonas aeruginosa ATCC 27853
Text: as §3, §1

[15] = tested on: Staphylococcus epidermidis ATCC 12228
Text: as §3, §1

[16] = tested on: hRBCs (human red blood cells)
Method: as §5

[17] = tested on: S. aureus 29213; type: cell-based, Staphylococcus aureus; details: 29213, 4 h
Method: (§4) The salt and serum stability of polypeptides were determined by improved MIC method (Lv et al., [2014]). Peptides were incubated with BSA containing different final concentrations of salt ions (150 mM NaCl, 4.5 mM KCl, 6 μm NH4Cl, 8 μm ZnCl2, 1 mM MgCl2, 2 mM CaCl2, and 4 μm FeCl3) (Wang et al., [2018]). To determine the stability of the peptide in serum, peptide was incubated with different proportions of serum (50%, 100%) at 37°C for 4 h. The following steps are the same as those for antimicrobial activity. Each trial was conducted two times in parallel. A total of three independent assays were carried out.

[18] = tested on: E. coli 25922; type: cell-based, Escherichia coli; details: 25922, 4 h
Method: as §4

For AKVVNKLTKGVAKLLK-NH2 [TP(i+4) 2&3], the “Therapeutic index (TI) / selectivity index (SI), All” value [1] was 1.41, the “Therapeutic index (TI), Gram-negative bacteria” value [2] was 2.00 and the “Therapeutic index (TI), Gram-positive bacteria” value [3] was 1.00. The “MHC (concentration of peptide that causes hemolysis of 50% of human red blood cells)” value [4] was >128 µM, the “MIC, E. faecalis 29212” value [5] was >128 µM and the “MIC, S. typhimurium 14028” value [6] was 128 µM. For the same substance, the “MIC, S. aureus 29213” value [7] was >128 µM, the “MIC, S. typhimurium 7731” value [8] was 128 µM and the “MIC, P. aeruginosa PAO1” value [9] was 128 µM. The “MIC, S. aureus 43300” value [10] was >128 µM, the “MIC, E. coli UB1005” value [11] was 8 µM and the “MIC, S. aureus 25923” value [12] was >128 µM. For the same substance, the “MIC, E. coli 25922” value [13] was 32 µM, the “MIC, P. aeruginosa 27853” value [14] was 128 µM and the “MIC, S. epidermidis 12228” value [15] was >128 µM.

ASVVKKLTKGVAKLLK-NH2 [TP(i+4) 1&2] was tested, and the “MHC (concentration of peptide that causes hemolysis of 50% of human red blood cells)” value [16] was >128 µM, the “MIC after incubation with 100% serum” value [17] was >64 µM and the “MIC in the presence of Ca2+” value [17] was >64 µM. The “MIC in the presence of Fe3+” value [17] was >64 µM, the “MIC in the presence of K+” value [17] was >64 µM and the “MIC in the presence of Mg2+” value [17] was >64 µM. The “MIC in the presence of NH4+” value [17] was >64 µM, the “MIC in the presence of Na+” value [17] was >64 µM and the “MIC in the presence of Zn2+” value [17] was >64 µM. The “MIC, Control” value [17] was >64 µM, the “MIC after incubation with 100% serum” value [18] was 32 µM and the “MIC in the presence of Ca2+” value [18] was >64 µM. For the same substance, the “MIC in the presence of Fe3+” value [18] was 8 µM, the “MIC in the presence of K+” value [18] was 8 µM and the “MIC in the presence of Mg2+” value [18] was 32 µM. For the same substance, the “MIC in the presence of NH4+” value [18] was 8 µM, the “MIC in the presence of Na+” value [18] was >64 µM and the “MIC in the presence of Zn2+” value [18] was 2 µM. The “MIC, Control” value [18] was 4 µM, the “Therapeutic index (TI) / selectivity index (SI), All” value [1] was 3.56 and the “Therapeutic index (TI), Gram-negative bacteria” value [2] was 12.70. The “Therapeutic index (TI), Gram-positive bacteria” value [3] was 1.00, the “MIC, E. faecalis 29212” value [5] was >128 µM and the “MIC, S. typhimurium 14028” value [6] was 32 µM. The “MIC, S. aureus 29213” value [7] was >128 µM, the “MIC, S. typhimurium 7731” value [8] was 16 µM and the “MIC, P. aeruginosa PAO1” value [9] was 8 µM. For the same substance, the “MIC, S. aureus 43300” value [10] was >128 µM, the “MIC, E. coli UB1005” value [11] was 4 µM and the “MIC, S. aureus 25923” value [12] was >128 µM. For the same substance, the “MIC, E. coli 25922” value [13] was 4 µM, the “MIC, P. aeruginosa 27853” value [14] was 16 µM and the “MIC, S. epidermidis 12228” value [15] was >128 µM.

With “ASVVNKLTGGVAGLLK-NH2 [TP, reference compound]” the “MHC (concentration of peptide that causes hemolysis of 50% of human red blood cells)” value [16] was >128 µM, the “Therapeutic index (TI) / selectivity index (SI), All” value [1] was 1.00 and the “Therapeutic index (TI), Gram-negative bacteria” value [2] was 1.00. The “Therapeutic index (TI), Gram-positive bacteria” value [3] was 1.00, the “MIC, E. faecalis 29212” value [5] was >128 µM and the “MIC, S. typhimurium 14028” value [6] was >128 µM. For the same substance, the “MIC, S. aureus 29213” value [7] was >128 µM, the “MIC, S. typhimurium 7731” value [8] was >128 µM and the “MIC, P. aeruginosa PAO1” value [9] was >128 µM. For the same substance, the “MIC, S. aureus 43300” value [10] was >128 µM, the “MIC, E. coli UB1005” value [11] was >128 µM and the “MIC, S. aureus 25923” value [12] was >128 µM. The “MIC, E. coli 25922” value [13] was >128 µM, the “MIC, P. aeruginosa 27853” value [14] was >128 µM and the “MIC, S. epidermidis 12228” value [15] was >128 µM.

ASVVNKLTGKVAGLLK-NH2 [TP(i+4) 4] was tested, and the “MHC (concentration of peptide that causes hemolysis of 50% of human red blood cells)” value [16] was >128 µM, the “Therapeutic index (TI) / selectivity index (SI), All” value [1] was 1.68 and the “Therapeutic index (TI), Gram-negative bacteria” value [2] was 2.83. The “Therapeutic index (TI), Gram-positive bacteria” value [3] was 1.00, the “MIC, E. faecalis 29212” value [5] was >128 µM and the “MIC, S. typhimurium 14028” value [6] was 128 µM. For the same substance, the “MIC, S. aureus 29213” value [7] was >128 µM, the “MIC, S. typhimurium 7731” value [8] was 64 µM and the “MIC, P. aeruginosa PAO1” value [9] was 64 µM. The “MIC, S. aureus 43300” value [10] was >128 µM, the “MIC, E. coli UB1005” value [11] was 16 µM and the “MIC, S. aureus 25923” value [12] was >128 µM. The “MIC, E. coli 25922” value [13] was 16 µM, the “MIC, P. aeruginosa 27853” value [14] was 64 µM and the “MIC, S. epidermidis 12228” value [15] was >128 µM.

For ASVVNKLTKGVAKLLK-NH2 [TP(i+4) 2], the “MHC (concentration of peptide that causes hemolysis of 50% of human red blood cells)” value [16] was >128 µM, the “Therapeutic index (TI) / selectivity index (SI), All” value [1] was 1.89 and the “Therapeutic index (TI), Gram-negative bacteria” value [2] was 3.56. The “Therapeutic index (TI), Gram-positive bacteria” value [3] was 1.00, the “MIC, E. faecalis 29212” value [5] was >128 µM and the “MIC, S. typhimurium 14028” value [6] was 128 µM. The “MIC, S. aureus 29213” value [7] was >128 µM, the “MIC, S. typhimurium 7731” value [8] was 64 µM and the “MIC, P. aeruginosa PAO1” value [9] was 32 µM. The “MIC, S. aureus 43300” value [10] was >128 µM, the “MIC, E. coli UB1005” value [11] was 8 µM and the “MIC, S. aureus 25923” value [12] was >128 µM. For the same substance, the “MIC, E. coli 25922” value [13] was 16 µM, the “MIC, P. aeruginosa 27853” value [14] was 64 µM and the “MIC, S. epidermidis 12228” value [15] was >128 µM.

ASVVNKLTKKVAKLLK-NH2 [TP(i+4) 2&4] was tested, and the “MHC (concentration of peptide that causes hemolysis of 50% of human red blood cells)” value [16] was >128 µM, the “Therapeutic index (TI) / selectivity index (SI), All” value [1] was 2.83 and the “Therapeutic index (TI), Gram-negative bacteria” value [2] was 8.00. For the same substance, the “Therapeutic index (TI), Gram-positive bacteria” value [3] was 1.00, the “MIC, E. faecalis 29212” value [5] was >128 µM and the “MIC, S. typhimurium 14028” value [6] was 64 µM. The “MIC, S. aureus 29213” value [7] was >128 µM, the “MIC, S. typhimurium 7731” value [8] was 16 µM and the “MIC, P. aeruginosa PAO1” value [9] was 8 µM. For the same substance, the “MIC, S. aureus 43300” value [10] was >128 µM, the “MIC, E. coli UB1005” value [11] was 8 µM and the “MIC, S. aureus 25923” value [12] was >128 µM. For the same substance, the “MIC, E. coli 25922” value [13] was 8 µM, the “MIC, P. aeruginosa 27853” value [14] was 32 µM and the “MIC, S. epidermidis 12228” value [15] was >128 µM.
